The values that follow come from patent publication US6593310B1, “Treatment of osteoporosis” (Arthropharm Pty. Ltd., priority 2000, dated 2003).

One data set concerns spinal fracture. As to conditions: post-menopausal women; cited from earlier work.
The test system of a further data set is bone. As to the kind of experiment: treatment of mammals with polysulfated polysaccharides, effect on bone. The class given is in vivo.

With `NCCCC(O)(P(=O)(O)O)P(=O)(O)O` [Fosamax, alendronate], in the data set with spinal fracture, the “reduction of risk of spinal fracture” value is ~50%.

For the molecule calcium pentosan polysulfate, the “occurrence or spread of osteoporosis” value with bone (low dosages producing blood levels of 0.01 to 100 micrograms per ml, low continuous or high pulsed therapy dose) is given as “reduces the occurrence or spread of osteoporosis”.

As to pentosan polysulfate, the “effect on bone (bone fragility)” value in the data set with bone (high repeated dosages, mammals) is “causes bone fragility”.
